The text below walks through data of US5135943A, “1H-imidazole derivative compounds and pharmaceutical compositions containing the same” (priority 1984, dated 1992).

One series deals with Gram-positive germs. Description: MIC by two-fold dilution, Gram-positive germs. As to conditions: 21 strains; read-out: Minimum Inhibitory Concentration. The format is cell-based.
Another series deals with Microsporum canis. As to the kind of experiment: MIC by two-fold dilution, Microsporum canis. As to conditions: 4 strains, read-out: Minimum Inhibitory Concentration. The format is cell-based. As to the method: (§1) Minimum Inhibitory Concentrations (MICS) of Sertaconazole and Miconazole against 107 yeasts, 47 dermatophytes and 4 fungi were determined by a two-fold dilution method.

Series [1] has as its system Trichophyton menta-grophytes. Description: MIC by two-fold dilution, Trichophyton mentagrophytes. The format is cell-based. As to conditions: 30 strains, read-out: Minimum Inhibitory Concentration. Here is the method: as §1
The test system of a further series is rats. As to the kind of experiment: Chronic toxicity in rats. The format is in vivo, rat. As to conditions: even at dosage levels of 300 mg/kg.

Molecules are shown by their SMILES. ≈ marks a conversion by molar mass, not a printed value.

Consider `Clc1ccc(C(Cn2ccnc2)OCc2csc3c(Cl)cccc23)c(Cl)c1` (stereo not shown) [Sertaconazole], for which the MIC in the series on Gram-positive germs worked out at 0.97 µg/mL (≈ 2.22 µM); in the series with Microsporum canis it was 2.8 µg/mL (≈ 6.4 µM); in series [1], 2.6 µg/mL (≈ 5.94 µM). Moreover, the mortality entry in the series with rats is on record as “no mortality was observed”.
